Data as given in patent US12509453B2, “BRM/BRG1 inhibitors and uses thereof” (Foghorn Therapeutics Inc., priority 2019, dated 2025).

Experiments:
BRM = target: T1, BRM (Homo sapiens, UniProt P51531); experiment: ATPase catalytic activity assay (ADP-Glo), BRM; type: biochemical; conditions: 30 nM BRM, 400 μM ATP; for IC50: 20 nM salmon sperm DNA, read-out: BRM IP50 (μM)*
T1 construct: made in house; host or cells: High Five insect cells
Description: (§1) The ATPase catalytic activity of BRM or BRG-1 was measured by the in vitro biochemical assay using ADP-Glo™ (Promega, V9102). The ADP-Glo™ kinase assay is performed in two steps once the reaction is complete. The first step is to deplete any unconsumed ATP in the reaction. The second step is to convert the reaction product ADP to ATP, which will be utilized by the luciferase to generate luminesce and be detected by a luminescence reader, such as Envision.
(§2) The assay reaction mixture (10 μL) contains 30 nM of BRM or BRG-1, 20 nM salmon sperm DNA (from Invitrogen, UltraPure™ Salmon Sperm DNA Solution, cat #15632011), and 400 μM of ATP in the ATPase assay buffer, which comprises of 20 mM Tris, pH 8, 20 mM MgCl2, 50 mM NaCl, 0.1% Tween-20, and 1 mM fresh DTT (Pierce™ DTT (Dithiothreitol), cat #20290). The reaction is initiated by the addition of the 2.5 μL ATPase solution to 2.5 μL ATP/DNA solution on low volume white Proxiplate-384 plus plate (PerkinElmer,cat #6008280) and incubates at room temperature for 1 hour. Then following addition of 5 μL of ADP-Glo™ Reagent provided in the kit, the reaction incubates at room temperature for 40 minutes. Then 10 μL of Kinase Detection Reagent provided in the kit is added to convert ADP to ATP, and the reaction incubates at room temperature for 60 minutes. Finally, luminescence measurement is collected with a plate-reading luminometer, such as Envision.
as §1, with “The” for “The ATPase catalytic activity of BRM or BRG-1 was measured by the in vitro biochemical assay using ADP-Glo™ (Promega, V9102). The”
as §2, with “BRG1,” for “BRG-1,”

BRG-1 = target: T2, BRG-1 (Homo sapiens, UniProt P51532); experiment: ATPase catalytic activity assay (ADP-Glo), BRG-1; type: biochemical; conditions: 30 nM BRG-1, 400 μM ATP; for IC50: 20 nM salmon sperm DNA, read-out: BRG1 IP50 (μM)*; for Emax: read-out: BRG1 Max % Inhibition
T2 construct: made in house; host or cells: High Five insect cells
T2 sequence (P51532 whole entry): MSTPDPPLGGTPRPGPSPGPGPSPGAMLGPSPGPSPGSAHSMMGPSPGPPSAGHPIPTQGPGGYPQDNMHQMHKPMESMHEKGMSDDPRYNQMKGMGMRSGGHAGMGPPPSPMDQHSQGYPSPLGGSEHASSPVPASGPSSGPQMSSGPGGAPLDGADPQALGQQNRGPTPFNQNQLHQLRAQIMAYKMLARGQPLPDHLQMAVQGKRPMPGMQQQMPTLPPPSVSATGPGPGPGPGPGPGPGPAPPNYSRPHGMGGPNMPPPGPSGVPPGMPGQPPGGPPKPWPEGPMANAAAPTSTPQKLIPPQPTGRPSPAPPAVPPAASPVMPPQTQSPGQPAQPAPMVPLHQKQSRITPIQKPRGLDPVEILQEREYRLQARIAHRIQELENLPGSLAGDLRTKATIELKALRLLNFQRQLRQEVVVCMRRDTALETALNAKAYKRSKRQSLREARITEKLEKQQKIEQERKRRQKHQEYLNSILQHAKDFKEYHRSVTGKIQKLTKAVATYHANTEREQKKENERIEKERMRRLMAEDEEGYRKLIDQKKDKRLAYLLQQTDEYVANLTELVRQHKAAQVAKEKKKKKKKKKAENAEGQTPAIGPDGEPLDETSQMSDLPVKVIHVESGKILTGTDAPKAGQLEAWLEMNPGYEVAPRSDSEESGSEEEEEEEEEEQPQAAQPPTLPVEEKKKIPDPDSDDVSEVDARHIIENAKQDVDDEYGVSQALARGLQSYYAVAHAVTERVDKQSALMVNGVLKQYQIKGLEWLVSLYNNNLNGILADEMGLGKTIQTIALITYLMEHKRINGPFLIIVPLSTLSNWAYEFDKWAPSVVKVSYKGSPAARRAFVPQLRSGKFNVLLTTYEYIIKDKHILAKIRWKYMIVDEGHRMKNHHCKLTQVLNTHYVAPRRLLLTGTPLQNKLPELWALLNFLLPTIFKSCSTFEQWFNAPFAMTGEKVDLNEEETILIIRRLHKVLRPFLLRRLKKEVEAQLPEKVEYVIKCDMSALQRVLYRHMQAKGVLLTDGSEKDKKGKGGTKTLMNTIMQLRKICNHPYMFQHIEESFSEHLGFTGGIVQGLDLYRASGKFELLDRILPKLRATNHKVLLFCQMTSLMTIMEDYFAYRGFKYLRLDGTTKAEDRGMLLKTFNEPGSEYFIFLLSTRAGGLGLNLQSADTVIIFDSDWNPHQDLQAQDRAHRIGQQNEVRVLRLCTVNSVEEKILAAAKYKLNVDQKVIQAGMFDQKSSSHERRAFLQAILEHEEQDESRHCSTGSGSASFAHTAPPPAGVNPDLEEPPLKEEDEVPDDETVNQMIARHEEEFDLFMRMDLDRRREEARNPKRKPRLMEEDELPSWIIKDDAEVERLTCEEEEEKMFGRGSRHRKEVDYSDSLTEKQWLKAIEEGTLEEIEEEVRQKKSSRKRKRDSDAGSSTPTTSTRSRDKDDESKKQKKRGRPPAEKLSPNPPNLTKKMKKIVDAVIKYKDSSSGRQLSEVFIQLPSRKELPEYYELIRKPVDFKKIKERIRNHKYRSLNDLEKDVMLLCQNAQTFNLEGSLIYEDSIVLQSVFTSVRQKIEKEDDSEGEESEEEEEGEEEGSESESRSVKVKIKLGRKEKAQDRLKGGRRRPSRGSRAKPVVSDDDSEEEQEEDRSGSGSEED
Description: as §1, §2
as §1, with “The” for “The ATPase catalytic activity of BRM or BRG-1 was measured by the in vitro biochemical assay using ADP-Glo™ (Promega, V9102). The”
as §2, with “BRG1,” for “BRG-1,”

T1 sequence (P51531 whole entry): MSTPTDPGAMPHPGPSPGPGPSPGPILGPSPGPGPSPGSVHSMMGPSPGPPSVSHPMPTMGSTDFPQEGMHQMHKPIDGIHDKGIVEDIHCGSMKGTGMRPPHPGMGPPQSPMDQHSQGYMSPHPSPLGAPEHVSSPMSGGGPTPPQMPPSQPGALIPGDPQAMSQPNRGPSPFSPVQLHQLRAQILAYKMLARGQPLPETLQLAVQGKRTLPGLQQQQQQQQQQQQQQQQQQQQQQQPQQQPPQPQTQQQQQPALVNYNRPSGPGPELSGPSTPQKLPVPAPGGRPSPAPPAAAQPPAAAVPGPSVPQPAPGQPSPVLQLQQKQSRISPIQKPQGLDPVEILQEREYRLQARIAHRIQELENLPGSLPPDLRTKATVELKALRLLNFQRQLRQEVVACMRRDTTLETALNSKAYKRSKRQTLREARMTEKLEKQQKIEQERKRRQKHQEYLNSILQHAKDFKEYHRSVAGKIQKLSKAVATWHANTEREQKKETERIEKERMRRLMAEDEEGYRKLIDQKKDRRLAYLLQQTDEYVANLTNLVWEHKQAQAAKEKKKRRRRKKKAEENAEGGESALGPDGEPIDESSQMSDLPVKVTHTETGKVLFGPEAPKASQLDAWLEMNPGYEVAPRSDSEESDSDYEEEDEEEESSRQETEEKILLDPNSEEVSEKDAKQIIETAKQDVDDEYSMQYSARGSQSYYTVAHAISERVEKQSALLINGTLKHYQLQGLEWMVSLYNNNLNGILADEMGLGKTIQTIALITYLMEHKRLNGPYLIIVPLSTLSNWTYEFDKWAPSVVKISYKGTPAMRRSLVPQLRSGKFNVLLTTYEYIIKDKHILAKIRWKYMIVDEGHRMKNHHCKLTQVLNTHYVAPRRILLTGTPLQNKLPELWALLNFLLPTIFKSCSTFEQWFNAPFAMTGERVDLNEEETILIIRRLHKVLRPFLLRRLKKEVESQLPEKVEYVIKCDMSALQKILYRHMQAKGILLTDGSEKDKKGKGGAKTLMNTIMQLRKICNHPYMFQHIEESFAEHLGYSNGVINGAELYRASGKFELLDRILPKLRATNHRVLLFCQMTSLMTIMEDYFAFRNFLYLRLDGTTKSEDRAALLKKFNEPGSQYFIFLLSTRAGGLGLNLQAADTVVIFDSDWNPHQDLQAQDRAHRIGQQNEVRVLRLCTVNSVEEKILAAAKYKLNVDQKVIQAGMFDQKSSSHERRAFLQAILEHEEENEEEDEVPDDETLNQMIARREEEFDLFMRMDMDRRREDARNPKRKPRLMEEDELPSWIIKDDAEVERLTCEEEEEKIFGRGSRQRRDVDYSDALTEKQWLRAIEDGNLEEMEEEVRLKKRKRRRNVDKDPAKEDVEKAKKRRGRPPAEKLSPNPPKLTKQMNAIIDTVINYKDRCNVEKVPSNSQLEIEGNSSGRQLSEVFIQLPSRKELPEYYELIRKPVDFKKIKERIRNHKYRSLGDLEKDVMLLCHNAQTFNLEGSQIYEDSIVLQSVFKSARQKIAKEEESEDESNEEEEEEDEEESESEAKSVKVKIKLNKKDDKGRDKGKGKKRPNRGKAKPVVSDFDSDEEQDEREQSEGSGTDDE

BRM Max % Inhibition (BRM) [%] | IC50 (BRM) [µM] | IC50 (BRG-1) [µM] | Emax (BRG-1) [%] | SMILES
>90 | 0.1 to 1 | > 5 | < 30 | CC(C)S(=O)(=O)n1cc(C(=O)NCC(=O)Nc2nc(-c3cc(F)cc(N4C[C@@H](C)O[C@@H](C)C4)c3)cs2)c2ccccc21 [Compound 21, N-(2-((4-(3-((cis)-2,6-dimethylmorpholino)-5-fluorophenyl)thiazol-2-yl)amino)-2-oxoethyl)-1-(isopropylsulfonyl)-1H-indole-3-carboxamide]
>80 | 0.1 to 1 | 1 to 5 | > 40 | Cc1nccc(-c2cccc(-c3csc(NC(=O)CNC(=O)c4cn(S(C)(=O)=O)c5ccccc45)n3)n2)n1 [Compound 22, N-(2-((4-(6-(2-methylpyrimidin-4-yl)pyridin-2-yl)thiazol-2-yl)amino)-2-oxoethyl)-1-(methylsulfonyl)-1H-indole-3-carboxamide]
>90 | 0.1 to 1 | 1 to 5 | > 40 | Cc1cc(-c2cccc(-c3csc(NC(=O)CNC(=O)c4cn(S(C)(=O)=O)c5ccccc45)n3)n2)ncn1 [Compound 23, N-(2-((4-(6-(6-methylpyrimidin-4-yl)pyridin-2-yl)thiazol-2-yl)amino)-2-oxoethyl)-1-(methylsulfonyl)-1H-indole-3-carboxamide]
>60 | 0.1 to 1 | > 5 | < 30 | Cc1nccc(-c2cccc(-c3csc(NC(=O)CNC(=O)c4cc(Cl)n(S(=O)(=O)C(C)C)c4)n3)n2)n1 [Compound 24, 5-chloro-1-(isopropylsulfonyl)-N-(2-((4-(6-(2-methylpyrimidin-4-yl)pyridin-2-yl)thiazol-2-yl)amino)-2-oxoethyl)-1H-pyrrole-3-carboxamide]
>95 | < 0.1 | 0.1 to 1 | > 80 | Cc1cc(-c2cccc(-c3csc(NC(=O)CNC(=O)c4cc(CO)n(S(=O)(=O)C(C)C)c4)n3)c2)cc(C)n1 [Compound 25, N-(2-((4-(3-(2,6-dimethylpyridin-4-yl)phenyl)thiazol-2-yl)amino)-2-oxoethyl)-5-(hydroxymethyl)-1-(isopropylsulfonyl)-1H-pyrrole-3-carboxamide]
>90 | 0.1 to 1 | 1 to 5 | > 60 | C[C@@H]1CN(c2cccc(-c3csc(NC(=O)CNC(=O)c4cn(S(C)(=O)=O)c5ccccc45)n3)c2)C[C@H](C)O1 [Compound 26, N-(2-((4-(3-((cis)-2,6-dimethylmorpholino)phenyl)thiazol-2-yl)amino)-2-oxoethyl)-1-(methylsulfonyl)-1H-indole-3-carboxamide]
>80 | 0.1 to 1 | 0.1 to 1 | > 60 | Cc1cc(-c2cccc(-c3csc(NC(=O)CNC(=O)c4cc(Cl)n(S(=O)(=O)C(C)C)c4)n3)n2)ncn1 [Compound 27, 5-chloro-1-(isopropylsulfonyl)-N-(2-((4-(6-(6-methylpyrimidin-4-yl)pyridin-2-yl)thiazol-2-yl)amino)-2-oxoethyl)-1H-pyrrole-3-carboxamide]
>90 | 0.1 to 1 | 1 to 5 | > 40 | C[C@@H]1CN(c2cccc(-c3csc(NC(=O)CNC(=O)c4cn(S(C)(=O)=O)c5c4CCCC5)n3)c2)C[C@H](C)O1 [Compound 28, N-(2-((4-(3-((cis)-2,6-dimethylmorpholino)phenyl)thiazol-2-yl)amino)-2-oxoethyl)-1-(methylsulfonyl)-4,5,6,7-tetrahydro-1H-indole-3-carboxamide]
>50 | < 0.1 | > 5 | < 30 | CC(C)S(=O)(=O)n1cc(C(=O)NCC(=O)Nc2nc(-c3cccc(-c4ccncc4)c3)cs2)c(Cl)c1Cl [Compound 30, 4,5-dichloro-1-isopropylsulfonyl-N-[2-oxo-2-[[4-[3-(4-pyridyl)phenyl]thiazol-2-yl]amino]ethyl]pyrrole-3-carboxamide]
>80 | 0.1 to 1 | > 5 | < 30 | CC(C)S(=O)(=O)n1cc(C(=O)NCC(=O)Nc2nc(-c3cccc(N4C[C@@H](C)O[C@@H](C)C4)c3)cs2)c2ccccc21 [Compound 31, N-(2-((4-(3-((cis)-2,6-dimethylmorpholino)phenyl)thiazol-2-yl)amino)-2-oxoethyl)-1-(isopropylsulfonyl)-1H-indole-3-carboxamide]
>95 | < 0.1 | 0.1 to 1 | > 90 | Cc1cc(-c2cccc(-c3csc(NC(=O)CNC(=O)c4cc(Cl)n(S(=O)(=O)C(C)C)c4)n3)c2)nc(C)n1 [Compound 32, 5-chloro-N-(2-((4-(3-(2,6-dimethylpyrimidin-4-yl)phenyl)thiazol-2-yl)amino)-2-oxoethyl)-1-(isopropylsulfonyl)-1H-pyrrole-3-carboxamide]
>95 | < 0.1 | 0.1 to 1 | > 90 | Cc1cc(-c2cccc(-c3csc(NC(=O)CNC(=O)c4cn(S(C)(=O)=O)c5ccccc45)n3)c2)cc(C)n1 [Compound 33, N-(2-((4-(3-(2,6-dimethylpyridin-4-yl)phenyl)thiazol-2-yl)amino)-2-oxoethyl)-1-(methylsulfonyl)-1H-indole-3-carboxamide]
>90 | < 0.1 | 1 to 5 | > 60 | Cc1cc(-c2cccc(-c3csc(NC(=O)CNC(=O)c4cn(S(=O)(=O)C(C)C)c5ccccc45)n3)c2)cc(C)n1 [Compound 34, N-(2-((4-(3-(2,6-dimethylpyridin-4-yl)phenyl)thiazol-2-yl)amino)-2-oxoethyl)-1-(isopropylsulfonyl)-1H-indole-3-carboxamide]
>95 | < 0.1 | 0.1 to 1 | > 80 | Cc1cc(-c2cccc(-c3csc(NC(=O)CNC(=O)c4cn(S(C)(=O)=O)c5c4CCCC5)n3)c2)cc(C)n1 [Compound 35, N-(2-((4-(3-(2,6-dimethylpyridin-4-yl)phenyl)thiazol-2-yl)amino)-2-oxoethyl)-1-(methylsulfonyl)-4,5,6,7-tetrahydro-1H-indole-3-carboxamide]
>90 | 0.1 to 1 | 1 to 5 | > 60 | CC(C)S(=O)(=O)n1cc(C(=O)NCC(=O)Nc2nc(-c3cccc(N4C[C@@H](C)O[C@@H](C)C4)c3)cs2)cc1Cl [Compound 36]
>80 | 0.1 to 1 | 1 to 5 | > 40 | CC(C)S(=O)(=O)n1cc(C(=O)NCC(=O)Nc2nc(-c3cccc(N4C[C@@H](C)O[C@@H](C)C4)n3)cs2)cc1Cl [Compound 37, 5-chloro-N-(2-((4-(6-((cis)-2,6-dimethylmorpholino)pyridin-2-yl)thiazol-2-yl)amino)-2-oxoethyl)-1-(isopropylsulfonyl)-1H-pyrrole-3-carboxamide]
>95 | 0.1 to 1 | 1 to 5 | > 70 | Cc1cc(C(=O)NCC(=O)Nc2nc(-c3cccc(N4C[C@@H](C)O[C@@H](C)C4)n3)cs2)cn1S(=O)(=O)C(C)C [Compound 38, N-(2-((4-(6-((cis)-2,6-dimethylmorpholino)pyridin-2-yl)thiazol-2-yl)amino)-2-oxoethyl)-1-(isopropylsulfonyl)-5-methyl-1H-pyrrole-3-carboxamide]
>80 | 0.1 to 1 | 1 to 5 | < 30 | CS(=O)(=O)n1cc(C(=O)NCC(=O)Nc2nc(-c3cccc(N4CCC(O)CC4)c3)cs2)c2ccccc21 [Compound 39, N-(2-((4-(3-(4-hydroxypiperidin-1-yl)phenyl)thiazol-2-yl)amino)-2-oxoethyl)-1-(methylsulfonyl)-1H-indole-3-carboxamide]
